Results from patent publication US12479848B2, “Substituted fused heteroaromatic bicyclic compounds as kinase inhibitors and the use thereof” (IMPACT THERAPEUTICS (SHANGHAI), INC, priority 2019, dated 2025).
pIC50: −log10 of the molar value.

Tests used:
ATR/ATRIP enzyme = target: T1, ATR/ATRIP enzyme (Homo sapiens, UniProt Q13535); assay: ATR enzyme activity experiment (HTRF); assay type: biochemical; conditions: for pIC50: HTRF, p53 substrate, 30 minutes at room temperature; for inhibition at 0.05 µM: read-out: Inh %, inhibitory effects on ATR kinase activity at 50 nM
T1 construct: purchased Eurofins 14-953
Protocol: The test compound was diluted to a 4× final concentration with reaction buffer (25 mM HEPES (pH8.0), 10 mM MnCl2, 1% glycerol, 0.01% Brij-35, 5 mM DTT and 0.1% BSA). […] The mixture was centrifuged at 1000 rpm for 1 minute, and reacted at room temperature protected from light for 30 minutes. Then 5 μL of EDTA stop solution (250 mM) was added to stop the reaction. […] Data were analyzed using GraphPad Prism6.0, and fitted using the curve equation: Y=Bottom+(Top−Bottom)/(1+10^((Log IC50−X)*HillSlope)) and IC50 values were calculated.

[1] = tested on: human lung cancer cell NCI-H460; assay: MTT proliferation assay, NCI-H460; assay type: cell-based; conditions: Homo sapiens, NCI-H460, 96 h, 4 days, read-out: IC50 (nM), inhibition of proliferation of NCI-H460
Protocol: (§1) The cells were seeded into 96-well cell culture plate with a density of 2000/4000 cells per well and incubated overnight in a 5% CO2 incubator at 37° C. […] 5 L diluent of each concentration was added to 120 μL of medium (25 times diluted) and mixed by shaking. The overnight cell plates were taken and the culture medium was removed, 195 μL of fresh medium was added to each well, and 5 μL of diluted medium containing the corresponding concentration of the test compound was added respectively (the final concentration of DMSO is 1%), and the culture plate was then placed in a 5% CO2 incubator at 37° C. for 4 days. After removing the original solution, 100 μL of fresh serum-free DMEM medium containing MTT (0.5 mg/mL) was added to each well, the culture was continued. […] Cell viability (%)=(ODcompound−ODbackground)/(ODDMSO−ODbackground)×100. GraphPad Prism 6.0 was used to analyze the data. The inhibitory activity of compounds on cell proliferation was plotted based on cell viability and the logarithm of compound concentration.

[2] = tested on: human colon cancer cell LoVo; assay: MTT proliferation assay, LoVo; assay type: cell-based; conditions: Homo sapiens, LoVo, 96 h, 4 days, read-out: IC50 (nM), inhibition of proliferation of LoVo
Protocol: as §1, with “5 μL” for “5 L”, “viability (%)=(ODcompound−ODbackground)/(ODDMSO-ODbackground)×100.” for “viability (%)=(ODcompound−ODbackground)/(ODDMSO−ODbackground)×100.”

T1 sequence (Q13535 whole entry): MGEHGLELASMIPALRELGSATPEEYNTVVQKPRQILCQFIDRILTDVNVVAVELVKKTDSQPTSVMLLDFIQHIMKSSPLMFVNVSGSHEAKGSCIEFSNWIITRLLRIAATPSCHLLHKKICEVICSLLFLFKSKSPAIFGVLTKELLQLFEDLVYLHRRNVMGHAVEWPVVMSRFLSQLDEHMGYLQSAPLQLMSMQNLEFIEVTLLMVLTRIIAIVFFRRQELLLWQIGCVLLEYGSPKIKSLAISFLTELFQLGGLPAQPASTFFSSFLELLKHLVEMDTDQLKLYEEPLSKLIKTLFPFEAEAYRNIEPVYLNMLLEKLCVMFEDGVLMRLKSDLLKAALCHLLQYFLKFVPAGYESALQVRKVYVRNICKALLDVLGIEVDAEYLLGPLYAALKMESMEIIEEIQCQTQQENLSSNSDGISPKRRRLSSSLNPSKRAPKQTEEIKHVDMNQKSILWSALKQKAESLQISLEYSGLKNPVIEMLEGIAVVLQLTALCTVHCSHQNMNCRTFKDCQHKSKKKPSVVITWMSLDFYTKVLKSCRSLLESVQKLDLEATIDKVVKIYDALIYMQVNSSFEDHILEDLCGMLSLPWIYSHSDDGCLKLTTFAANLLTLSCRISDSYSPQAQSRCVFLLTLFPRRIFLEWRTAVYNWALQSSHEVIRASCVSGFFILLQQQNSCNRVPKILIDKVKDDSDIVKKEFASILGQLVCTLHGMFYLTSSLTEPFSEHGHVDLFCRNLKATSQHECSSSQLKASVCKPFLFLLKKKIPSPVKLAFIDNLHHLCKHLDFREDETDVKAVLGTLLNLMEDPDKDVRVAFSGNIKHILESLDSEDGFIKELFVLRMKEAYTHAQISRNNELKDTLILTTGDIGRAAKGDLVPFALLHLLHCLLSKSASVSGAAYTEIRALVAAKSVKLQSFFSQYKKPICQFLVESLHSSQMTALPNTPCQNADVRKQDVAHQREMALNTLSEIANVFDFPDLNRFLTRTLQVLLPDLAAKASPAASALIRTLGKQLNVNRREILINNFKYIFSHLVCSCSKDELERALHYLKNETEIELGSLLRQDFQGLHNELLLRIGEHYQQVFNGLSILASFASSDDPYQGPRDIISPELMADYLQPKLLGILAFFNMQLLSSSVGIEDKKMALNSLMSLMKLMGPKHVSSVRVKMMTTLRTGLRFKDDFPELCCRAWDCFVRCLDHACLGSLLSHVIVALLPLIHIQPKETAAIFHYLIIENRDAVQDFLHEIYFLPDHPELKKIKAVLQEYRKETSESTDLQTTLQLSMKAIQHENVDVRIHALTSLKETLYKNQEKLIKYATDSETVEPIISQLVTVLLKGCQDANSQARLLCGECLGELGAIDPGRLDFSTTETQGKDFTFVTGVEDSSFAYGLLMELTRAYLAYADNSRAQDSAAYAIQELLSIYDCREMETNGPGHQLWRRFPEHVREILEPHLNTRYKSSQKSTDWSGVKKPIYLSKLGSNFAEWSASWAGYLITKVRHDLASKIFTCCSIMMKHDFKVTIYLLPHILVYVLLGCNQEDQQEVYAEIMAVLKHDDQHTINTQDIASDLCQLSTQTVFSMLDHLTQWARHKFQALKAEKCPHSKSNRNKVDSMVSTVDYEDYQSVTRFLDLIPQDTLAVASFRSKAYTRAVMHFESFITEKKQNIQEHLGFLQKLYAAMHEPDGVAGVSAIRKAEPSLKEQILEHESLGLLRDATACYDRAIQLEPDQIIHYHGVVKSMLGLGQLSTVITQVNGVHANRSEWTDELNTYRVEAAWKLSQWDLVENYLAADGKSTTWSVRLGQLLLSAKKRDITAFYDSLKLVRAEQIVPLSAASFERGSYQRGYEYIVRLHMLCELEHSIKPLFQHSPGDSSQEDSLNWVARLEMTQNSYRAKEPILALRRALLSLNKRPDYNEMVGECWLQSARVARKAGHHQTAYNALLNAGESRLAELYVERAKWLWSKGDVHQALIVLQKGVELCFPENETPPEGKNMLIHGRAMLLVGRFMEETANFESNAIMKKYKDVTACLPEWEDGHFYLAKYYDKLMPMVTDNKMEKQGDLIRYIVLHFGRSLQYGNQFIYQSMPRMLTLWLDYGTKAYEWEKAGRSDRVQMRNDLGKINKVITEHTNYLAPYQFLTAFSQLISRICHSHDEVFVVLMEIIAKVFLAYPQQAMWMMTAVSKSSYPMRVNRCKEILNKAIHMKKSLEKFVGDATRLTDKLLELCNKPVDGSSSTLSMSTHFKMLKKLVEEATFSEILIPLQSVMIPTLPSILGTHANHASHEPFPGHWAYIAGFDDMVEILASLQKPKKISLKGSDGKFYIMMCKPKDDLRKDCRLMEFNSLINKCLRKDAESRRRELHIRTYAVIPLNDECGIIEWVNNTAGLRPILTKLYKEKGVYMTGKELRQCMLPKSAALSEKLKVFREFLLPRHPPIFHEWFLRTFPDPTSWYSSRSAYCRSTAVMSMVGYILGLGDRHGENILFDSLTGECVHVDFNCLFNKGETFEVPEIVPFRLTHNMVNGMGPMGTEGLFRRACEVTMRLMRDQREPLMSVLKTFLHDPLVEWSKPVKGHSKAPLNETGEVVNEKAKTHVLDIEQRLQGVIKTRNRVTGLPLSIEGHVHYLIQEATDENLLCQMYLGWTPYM
T1 sequence (Q8WXE1 whole entry partner): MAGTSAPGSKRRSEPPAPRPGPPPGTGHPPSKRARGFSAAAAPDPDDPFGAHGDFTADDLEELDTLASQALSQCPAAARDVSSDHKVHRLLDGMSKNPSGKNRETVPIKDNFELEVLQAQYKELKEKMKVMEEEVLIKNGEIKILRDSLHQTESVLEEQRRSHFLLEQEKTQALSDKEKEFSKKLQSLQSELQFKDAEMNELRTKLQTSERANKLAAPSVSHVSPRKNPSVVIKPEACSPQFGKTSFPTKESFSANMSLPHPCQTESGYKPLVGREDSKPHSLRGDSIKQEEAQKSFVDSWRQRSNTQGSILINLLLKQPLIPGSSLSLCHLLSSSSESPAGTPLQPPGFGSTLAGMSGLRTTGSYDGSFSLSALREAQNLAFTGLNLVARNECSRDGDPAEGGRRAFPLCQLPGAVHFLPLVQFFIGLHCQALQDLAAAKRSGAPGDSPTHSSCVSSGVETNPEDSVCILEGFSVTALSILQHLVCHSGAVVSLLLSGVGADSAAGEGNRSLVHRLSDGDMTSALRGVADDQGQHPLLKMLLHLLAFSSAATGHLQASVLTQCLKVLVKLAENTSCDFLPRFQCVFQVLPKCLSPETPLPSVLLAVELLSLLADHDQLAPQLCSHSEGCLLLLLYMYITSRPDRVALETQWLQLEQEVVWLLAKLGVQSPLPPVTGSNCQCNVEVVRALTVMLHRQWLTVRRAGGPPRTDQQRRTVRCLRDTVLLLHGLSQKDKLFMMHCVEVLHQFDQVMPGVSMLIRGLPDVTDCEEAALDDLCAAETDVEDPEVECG

Row | Compound | pIC50 (ATR/ATRIP enzyme) | IC50 [1] | IC50 [2] | inhibition at 0.05 µM (ATR/ATRIP enzyme)
1 | C[C@@H]1COCCN1c1cc(-c2ccnn2C)c2ncc(-c3ccn[nH]3)n2c1 [Example 1, (R)-3-methyl-4-(8-(1-methyl-1H-pyrazol-5-yl)-3-(1H-pyrazol-5-yl)imidazo[1,2-a]pyridin-6-yl)morpholine] | < 5.00 |  |  | 
2 | C[C@@H]1COCCN1c1cc(-c2cncn2C)c2ncc(-c3ccn[nH]3)n2n1 [Example 5, (R)-3-methyl-4-(8-(1-methyl-1H-imidazol-5-yl)-3-(1H-pyrazol-5-yl)imidazo[1,2-b]pyridazin-6-yl)morpholine] | 7.23 | 1610 nM | 557 nM | 
3 | Cn1nccc1-c1cc(N2CCOCC2)nn2c(-c3ccn[nH]3)ncc12 [Example 11, 4-(4-(1-methyl-1H-pyrazol-5-yl)-7-(1H-pyrazol-5-yl)imidazol[1,5-b]pyridazin-2-yl)morpholine] |  | 159 nM | 168 nM | 63%
4 | Cn1nccc1-c1cc(N2CCOCC2)nn2c(-c3ccn[nH]3)nnc12 [Example 12, 4-(8-(1-methyl-1H-pyrazol-5-yl)-3-(1H-pyrazol-5-yl)-[1,2,4]triazolo[4,3-b]pyridazin-6-yl)morpholine] |  | > 10000 nM | 3230 nM | 
5 | C[C@@H]1COCCN1c1cc(-c2ccnn2C)c2nnc(-c3ccn[nH]3)n2n1 [Example 15, (R)-3-methyl-4-(8-(1-methyl-1H-pyrazol-5-yl)-3-(1H-pyrazol-5-yl)-[1,2,4]triazolo[4,3-b]pyridazin-6-yl)morpholine] |  | 1920 nM | 597 nM | 
6 | C[C@@H]1COCCN1c1cc(-c2ccnn2C)c2cnc(-c3cc[nH]c3)n2n1 [Example 21, (R)-3-methyl-4-(4-(1-methyl-1H-pyrazol-5-yl)-7-(1H-pyrrol-3-yl)imidazo[1,5-b]pyridazin-2-yl)morpholine] | 8.17 | 244 nM | 155 nM | 
7 | C[C@@H]1COCCN1c1cc(-c2ccnn2C)c2cnc(-c3ccc[nH]3)n2n1 [Example 22, (R)-3-methyl-4-(4-(1-methyl-1H-pyrazol-5-yl)-7-(1H-pyrrol-2-yl)imidazo[1,5-b]pyridazin-2-yl)morpholine] | 8.69 | 1150 nM | 854 nM | 
8 | C[C@@H]1COCCN1c1cc(-c2ccnn2C)c2cnc(-c3c[nH]cn3)n2n1 [Example 23, (R)-4-(7-(1H-imidazol-4-yl)-4-(1-methyl-1H-pyrazol-5-yl)imidazo[1,5-b]pyridazin-2-yl)-3-methylmorpholine] | < 6.00 | 1800 nM | 1530 nM | 
9 | Cc1ccc(-c2cc(N3CCOC[C@H]3C)nn3c(-c4ccn[nH]4)ncc23)cn1 [Example 24, (R)-3-methyl-4-(4-(6-methylpyridin-3-yl)-7-(1H-pyrazol-5-yl)imidazo[1,5-b]pyridazin-2-yl)morpholine] | 8.70 | 27.8 nM | 34.4 nM | 
10 | C[C@@H]1COCCN1c1cc(-c2ccccc2F)c2cnc(-c3ccn[nH]3)n2n1 [Example 25, (R)-4-(4-(2-fluorophenyl)-7-(1H-pyrazol-5-yl)imidazo[1,5-b]pyridazin-2-yl)-3-methylmorpholine] | 8.15 | 40.4 nM | 61.9 nM | 
11 | CC(C)n1nccc1-c1cc(N2CCOC[C@H]2C)nn2c(-c3ccn[nH]3)ncc12 [Example 26, (R)-4-(4-(1-isopropyl-1H-pyrazol-5-yl)-7-(1H-pyrazol-5-yl)imidazo[1,5-b]pyridazin-2-yl)-3-methylmorpholine] | 8.22 | 55.2 nM | 68.2 nM | 
12 | C[C@@H]1COCCN1c1cc(-c2ccn[nH]2)c2cnc(-c3ccn[nH]3)n2n1 [Example 27, (R)-4-(4,7-di(1H-pyrazol-5-yl)imidazo[1,5-b]pyridazin-2-yl)-3-methylmorpholine] |  | 287 nM | 124 nM | 
13 | C[C@@H]1COCCN1c1cc(C2CC2)c2cnc(-c3ccn[nH]3)n2n1 [Example 32, (R)-4-(4-cyclopropyl-7-(1H-pyrazol-5-yl)imidazo[1,5-b]pyridazin-2-yl)-3-methylmorpholine] | 7.82 | 78.6 nM | 87.3 nM | 
14 | C[C@H]1COCCN1c1cc(-c2ccnn2C)c2cnc(-c3ccn[nH]3)n2n1 [Example 33, (S)-3-methyl-4-(4-(1-methyl-1H-pyrazol-5-yl)-7-(1H-pyrazol-5-yl)imidazo[1,5-b]pyridazin-2-yl)morpholine] |  | 256 nM | 230 nM | 27%
15 | C[C@@H]1COC[C@@H](C)N1c1cc(-c2ccnn2C)c2cnc(-c3ccn[nH]3)n2n1 [Example 34, (3R,5R)-3,5-dimethyl-4-(4-(1-methyl-1H-pyrazol-5-yl)-7-(1H-pyrazol-5-yl)imidazo[1,5-b]pyridazin-2-yl)morpholine] |  | 1520 nM | 953 nM | 
16 | C[C@@H]1COCCN1c1cc(-c2ccc(S(C)(=O)=O)cc2)c2cnc(-c3ccn[nH]3)n2n1 [Example 35, (R)-3-methyl-4-(4-(4-(methylsulfonyl)phenyl)-7-(1H-pyrazol-5-yl)imidazo[1,5-b]pyridazin-2-yl)morpholine] |  | 171 nM | 75.4 nM | 71%
17 | Cc1ccc(C)n1-c1cc(N2CCOC[C@H]2C)nn2c(-c3ccn[nH]3)ncc12 [Example 36, (R)-4-(4-(2,5-dimethyl-1H-pyrrol-1-yl)-7-(1H-pyrazol-5-yl)imidazo[1,5-b]pyridazin-2-yl)-3-methylmorpholine] |  | 116 nM | 114 nM | 63%
18 | CCn1nccc1-c1cc(N2CCOC[C@H]2C)nn2c(-c3ccn[nH]3)ncc12 [Example 37, (R)-4-(4-(1-ethyl-1H-pyrazol-5-yl)-7-(1H-pyrazol-5-yl)imidazo[1,5-b]pyridazin-2-yl)-3-methylmorpholine] | 8.15 | 58.8 nM | 45 nM | 
19 | Cc1n[nH]cc1-c1cc(N2CCOC[C@H]2C)nn2c(-c3ccn[nH]3)ncc12 [Example 38, (R)-3-methyl-4-(4-(3-methyl-1H-pyrazol-4-yl)-7-(1H-pyrazol-5-yl)imidazo[1,5-b]pyridazin-2-yl)morpholine] |  | 419 nM | 128 nM | 90%
20 | Cc1ccc(-c2cc(N3CCOC[C@H]3C)nn3c(-c4cc(C)n[nH]4)ncc23)cn1 [Example 39, (R)-3-methyl-4-(7-(3-methyl-1H-pyrazol-5-yl)-4-(6-methylpyridin-3-yl)imidazo[1,5-b]pyridazin-2-yl)morpholine] | 8.52 | 26.1 nM | 30.7 nM | 
21 | Cc1ccccc1-c1cc(N2CCOC[C@H]2C)nn2c(-c3ccn[nH]3)ncc12 [Example 40, (R)-4-(7-(1H-pyrazol-5-yl)-4-(o-tolyl)imidazo[1,5-b]pyridazin-2-yl)-3-methylmorpholine] | 8.70 | 17.4 nM | 21.8 nM | 
22 | Cc1cnn(C)c1-c1cc(N2CCOC[C@H]2C)nn2c(-c3ccn[nH]3)ncc12 [Example 41, (R)-4-(4-(1,4-dimethyl-1H-pyrazol-5-yl)-7-(1H-pyrazol-5-yl)imidazo[1,5-b]pyridazin-2-yl)-3-methylmorpholine] | 8.70 | 48.8 nM | 49.5 nM | 
23 | Cc1cnccc1-c1cc(N2CCOC[C@H]2C)nn2c(-c3ccn[nH]3)ncc12 [Example 51, (R)-3-methyl-4-(4-(3-methylpyridin-4-yl)-7-(1H-pyrazol-5-yl)imidazo[1,5-b]pyridazin-2-yl)morpholine] |  | 76.3 nM | 76.7 nM | 
24 | C[C@@H]1COCCN1c1cc(-c2ccnc3[nH]ccc23)c2cnc(-c3ccn[nH]3)n2n1 [Example 55, (R)-4-(7-(1H-pyrazol-5-yl)-4-(1H-pyrrolo[2,3-b]pyridin-4-yl)imidazo[1,5-b]pyridazin-2-yl)-3-methylmorpholine] |  | 95.3 nM | 51 nM | 
25 | C[C@@H]1COCCN1c1cc(-c2ccn(CCF)n2)c2cnc(-c3ccn[nH]3)n2n1 [Example 61, (R)-4-(4-(1-(2-fluoroethyl)-1H-pyrazol-3-yl)-7-(1H-pyrazol-5-yl)imidazo[1,5-b]pyridazin-2-yl)-3-methylmorpholine] |  | 169 nM | 175 nM | 
